Source: ChEMBL document CHEMBL1201862, “PubChem BioAssay data set” (2004)
Calls of active or inactive are those of the source.

Assays:
[1] = biological target: 26S proteasome non-ATPase regulatory subunit 14 (Homo sapiens, UniProt O00487); assay: inhibition of proteasome subunit RPN11 – biochemical, fluorescence polarization, uHTS hits, confirmation (AID 602368); assay type: functional
[2] = biological target: 72 kDa type IV collagenase (Homo sapiens, UniProt P08253); assay: Dose Response validation of uHTS RPN11 inhibitor hits using a MMP-2 Fluorescence assay.; assay type: functional
Chain of 72 kDa type IV collagenase (P08253 whole entry): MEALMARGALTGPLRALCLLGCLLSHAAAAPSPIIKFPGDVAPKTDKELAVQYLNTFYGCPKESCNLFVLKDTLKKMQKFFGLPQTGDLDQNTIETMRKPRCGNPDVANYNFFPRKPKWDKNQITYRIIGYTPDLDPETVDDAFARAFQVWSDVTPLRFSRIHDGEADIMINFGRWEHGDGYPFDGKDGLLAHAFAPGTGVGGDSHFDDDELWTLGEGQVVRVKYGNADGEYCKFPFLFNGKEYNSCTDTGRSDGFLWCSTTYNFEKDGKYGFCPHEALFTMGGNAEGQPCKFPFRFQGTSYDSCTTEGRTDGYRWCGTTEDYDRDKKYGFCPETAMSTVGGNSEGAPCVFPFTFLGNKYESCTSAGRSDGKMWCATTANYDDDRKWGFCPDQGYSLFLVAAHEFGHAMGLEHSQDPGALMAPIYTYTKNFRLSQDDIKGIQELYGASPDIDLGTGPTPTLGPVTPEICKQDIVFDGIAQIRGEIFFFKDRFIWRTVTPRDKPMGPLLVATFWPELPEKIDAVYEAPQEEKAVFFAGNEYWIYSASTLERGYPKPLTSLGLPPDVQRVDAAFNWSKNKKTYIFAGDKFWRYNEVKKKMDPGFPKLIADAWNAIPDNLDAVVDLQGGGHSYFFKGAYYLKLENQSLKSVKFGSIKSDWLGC

Prothrombin = Prothrombin (Bos taurus, UniProt P00735); assay: thrombin protease inhibitors – biochemical, fluorescence polarization, uHTS hits, dose response (AID 602369); assay type: functional
Melanocortin receptor 4 = Melanocortin receptor 4 (Homo sapiens, UniProt P32245); assay: inhibitors of MC4R cAMP signaling – cell-based, TR-FRET, biased antagonists, dose response (AID 602298); assay type: functional;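 note: antagonist potency against agonist-stimulated cAMP production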
Chain of Melanocortin receptor 4 (P32245 whole entry): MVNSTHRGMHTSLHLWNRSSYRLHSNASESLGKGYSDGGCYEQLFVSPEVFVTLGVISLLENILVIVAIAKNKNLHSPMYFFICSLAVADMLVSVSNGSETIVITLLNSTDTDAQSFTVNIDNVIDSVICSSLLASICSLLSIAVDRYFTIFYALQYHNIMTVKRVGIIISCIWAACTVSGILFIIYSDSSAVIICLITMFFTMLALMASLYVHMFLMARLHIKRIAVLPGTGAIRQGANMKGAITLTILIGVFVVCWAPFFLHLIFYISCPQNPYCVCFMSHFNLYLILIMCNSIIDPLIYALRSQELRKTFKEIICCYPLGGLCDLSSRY

[3] = cAMP pathway inhibition in counterscreen cell line – TR-FRET cAMP detection, counter-screen for MC4R biased antagonist project, dose response (AID 602305); assay type: functional, cell-based;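 note: U2OS cells stimulated with forskolin near its EC80 as the cAMP inducer; potency is for inhibition of forskolin-stimulated cAMP signaling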
[4] = biological target: T1, High affinity choline transporter 1 (Homo sapiens, UniProt Q9GZV3); assay: human choline transporter blockers, potency – cell-based, 5-point CRC, membrane potential dye, dose response (AID 504840); assay type: functional
T1 sequence (Q9GZV3 whole entry): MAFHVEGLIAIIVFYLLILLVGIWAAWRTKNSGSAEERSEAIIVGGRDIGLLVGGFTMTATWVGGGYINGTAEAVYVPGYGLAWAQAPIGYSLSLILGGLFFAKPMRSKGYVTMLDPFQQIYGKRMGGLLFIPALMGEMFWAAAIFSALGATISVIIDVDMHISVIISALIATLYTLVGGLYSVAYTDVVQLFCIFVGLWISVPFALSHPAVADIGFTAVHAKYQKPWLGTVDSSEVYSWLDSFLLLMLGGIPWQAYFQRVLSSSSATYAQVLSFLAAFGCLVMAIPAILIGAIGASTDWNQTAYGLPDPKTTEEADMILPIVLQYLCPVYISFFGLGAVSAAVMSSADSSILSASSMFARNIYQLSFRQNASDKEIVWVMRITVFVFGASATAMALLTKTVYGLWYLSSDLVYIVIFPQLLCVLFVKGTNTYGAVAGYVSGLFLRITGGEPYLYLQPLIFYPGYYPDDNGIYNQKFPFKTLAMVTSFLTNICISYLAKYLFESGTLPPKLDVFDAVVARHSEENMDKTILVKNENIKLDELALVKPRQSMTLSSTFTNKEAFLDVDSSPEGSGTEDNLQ

[5] = biological target: T1, High affinity choline transporter 1; assay: human choline transporter blockers, potency – cell-based, 10-point CRC, membrane potential dye, dose response (AID 588401); assay type: functional;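 note: membrane potential dye fluorescence of choline-evoked depolarization via CHT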
[6] = biological target: T2, RNA-binding protein pos-1 (Caenorhabditis elegans, UniProt G5EF15); assay: disruptors of C. elegans POS-1 RNA interaction – biochemical, fluorescence polarization, dose response (AID 1964);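 note: purified POS-1 fused to maltose binding protein made in E. coli; potency of compounds blocking POS-1 binding to fluorescent RNA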
T2 sequence (G5EF15 whole entry): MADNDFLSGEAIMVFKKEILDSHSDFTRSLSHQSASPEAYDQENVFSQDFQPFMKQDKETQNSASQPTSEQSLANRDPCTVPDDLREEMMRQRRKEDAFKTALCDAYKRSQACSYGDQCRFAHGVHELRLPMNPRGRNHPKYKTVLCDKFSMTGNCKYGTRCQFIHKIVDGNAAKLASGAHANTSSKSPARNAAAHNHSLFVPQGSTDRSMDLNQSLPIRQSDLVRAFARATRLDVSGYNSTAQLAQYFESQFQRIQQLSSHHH

[7] = biological target: T3, Zinc finger protein mex-5 (Caenorhabditis elegans, UniProt Q9XUB2); assay: potency of MEX-5 RNA-binding blockers – biochemical, C. elegans, fluorescence polarization, dose response (AID 1960)
T3 sequence (Q9XUB2 whole entry): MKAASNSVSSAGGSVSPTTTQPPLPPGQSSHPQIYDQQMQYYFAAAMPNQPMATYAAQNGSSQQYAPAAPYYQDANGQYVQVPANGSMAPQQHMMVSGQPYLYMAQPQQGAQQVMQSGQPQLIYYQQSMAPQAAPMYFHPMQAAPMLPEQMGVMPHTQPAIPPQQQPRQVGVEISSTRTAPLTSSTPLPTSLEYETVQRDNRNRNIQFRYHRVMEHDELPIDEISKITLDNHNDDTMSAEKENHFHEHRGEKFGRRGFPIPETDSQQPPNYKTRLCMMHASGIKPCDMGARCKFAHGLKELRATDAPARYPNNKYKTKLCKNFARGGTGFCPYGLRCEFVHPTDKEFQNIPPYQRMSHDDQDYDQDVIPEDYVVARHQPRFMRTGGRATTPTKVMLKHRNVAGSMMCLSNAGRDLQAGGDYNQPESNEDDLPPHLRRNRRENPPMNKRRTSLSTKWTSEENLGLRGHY

[8] = Trypanosoma cruzi growth suppression in host cells – NIH3T3 host cells, beta-gal luminescence, confirmation (AID 2044); assay type: functional, cell-based;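 note: intracellular parasites grown in NIH/3T3 mouse fibroblasts as host cells; luminescent beta-galactosidase reporter signal from transgenic T. cruzi replicating inside host cells; inhibitors lower the luminescence signal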
[9] = NIH3T3 cell viability loss – ATP luminescence, mouse fibroblasts, counter-screen, dose response (AID 2010); assay type: functional, cell-based;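 note: cells exposed to compound for about 90 hours before reading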
[10] = HEK-293T cell viability reduction – luminescence, B-cell screen hits, cytotoxicity control for BCR NF-kB inhibitor project, dose response (AID 489021); assay type: functional, cell-based;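 note: HEK-293T cells carrying an NF-kB luciferase reporter; cells exposed to compound for about 14 hours before viability readout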
HEK293 = assay: EBV LMP1 TES2 canonical NF-kB signalling blockers – cell-based, HEK293, luciferase, cherry-pick, dose response (AID 588343); assay type: functional; details: Homo sapiens
[11] = biological target: Latent membrane protein 1 (Human herpesvirus 4 (strain B95-8), UniProt P03230); assay: LMP1 TES1 pathway selectivity over dsRED control – imaging, HEK293T, dual-color eGFP/dsRED, cherry-picks, selectivity assay for LMP1 NF-kB inhibitor project, dose response (AID 588398); assay type: functional, cell-based
Chain of Latent membrane protein 1 (P03230 whole entry): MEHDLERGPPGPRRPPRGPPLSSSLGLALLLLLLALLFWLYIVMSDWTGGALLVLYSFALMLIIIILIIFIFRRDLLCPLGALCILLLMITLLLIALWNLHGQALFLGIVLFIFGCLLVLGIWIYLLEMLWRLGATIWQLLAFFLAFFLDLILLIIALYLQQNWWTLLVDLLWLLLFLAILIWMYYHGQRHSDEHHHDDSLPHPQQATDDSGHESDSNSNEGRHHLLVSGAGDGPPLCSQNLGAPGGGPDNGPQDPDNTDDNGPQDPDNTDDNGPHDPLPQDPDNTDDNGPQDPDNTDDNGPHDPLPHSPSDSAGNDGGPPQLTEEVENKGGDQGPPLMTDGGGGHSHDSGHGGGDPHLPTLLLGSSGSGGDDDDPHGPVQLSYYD

Protein skinhead-1 = biological target: T4, Protein skinhead-1 (Caenorhabditis elegans, UniProt P34707); assay type: functional
T4 sequence (P34707 whole entry): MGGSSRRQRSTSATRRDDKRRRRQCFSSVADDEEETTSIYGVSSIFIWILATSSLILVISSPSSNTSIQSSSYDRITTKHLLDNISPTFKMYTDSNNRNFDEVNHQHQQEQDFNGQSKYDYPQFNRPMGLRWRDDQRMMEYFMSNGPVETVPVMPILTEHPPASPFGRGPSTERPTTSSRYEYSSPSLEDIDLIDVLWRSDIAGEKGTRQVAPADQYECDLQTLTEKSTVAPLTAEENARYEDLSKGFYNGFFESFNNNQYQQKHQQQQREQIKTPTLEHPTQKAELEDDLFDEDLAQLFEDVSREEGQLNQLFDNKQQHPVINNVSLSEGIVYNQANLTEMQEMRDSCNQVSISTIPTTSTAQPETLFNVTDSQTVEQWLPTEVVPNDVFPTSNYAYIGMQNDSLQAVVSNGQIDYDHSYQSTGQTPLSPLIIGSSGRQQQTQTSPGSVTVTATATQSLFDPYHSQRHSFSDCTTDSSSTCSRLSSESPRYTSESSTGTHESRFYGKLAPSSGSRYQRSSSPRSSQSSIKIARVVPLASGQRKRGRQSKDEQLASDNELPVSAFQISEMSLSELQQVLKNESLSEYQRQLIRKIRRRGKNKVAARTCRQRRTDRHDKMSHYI

Chain of 26S proteasome non-ATPase regulatory subunit 14 (O00487 whole entry): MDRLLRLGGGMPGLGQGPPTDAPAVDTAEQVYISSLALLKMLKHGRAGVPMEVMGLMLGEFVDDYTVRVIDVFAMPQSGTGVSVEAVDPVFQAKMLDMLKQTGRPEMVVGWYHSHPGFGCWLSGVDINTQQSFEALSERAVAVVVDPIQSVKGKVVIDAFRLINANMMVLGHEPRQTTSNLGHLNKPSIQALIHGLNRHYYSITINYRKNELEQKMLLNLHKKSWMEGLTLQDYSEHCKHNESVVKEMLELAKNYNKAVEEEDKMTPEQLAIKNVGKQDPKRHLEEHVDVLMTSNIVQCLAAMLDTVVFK

With `Cc1cc(C(F)(F)F)nc(SCCN2CCOCC2)c1C#N` the IC50 [1] was 19.7 µM (active), the IC50 [2] was > 100 µM (inactive) and the IC50 (Prothrombin) was 25.7 µM (active).
For `CC(C)(C)C(=O)COC(=O)CNC(=O)c1ccc(Oc2ccccc2)cc1`, the IC50 (Melanocortin receptor 4) was > 64.6 µM (inactive) and the IC50 [3] was > 64.6 µM (inactive).
With `CCCCn1nc2cc(C(=O)N[C@H](C)C3CCCCC3)ccc2c1OCC` the IC50 [4] was 7.76 µM (active) and the IC50 [5] was 4.47 µM (active).
In the case of `CSc1nsc(/C=C/Nc2ccc(C(=O)O)cc2)c1C#N`, the IC50 [1] is reported as 24.8 µM (active), the IC50 [2] is reported as 45 µM (active) and the IC50 (Prothrombin) is reported as 27.6 µM (active).
For `CCc1ccc(/C=C2\SC(=S)N(CCCC(=O)Nc3ccccn3)C2=O)cc1`, the EC50 [6] was 27.1 µM (active), the EC50 [7] was 24.6 µM (active) and the EC50 [8] was 1.83 µM (active). For the same compound, the EC50 [9] was 54.8 µM (active), the IC50 [10] was > 80 µM (inactive) and the AC50 (HEK293) was 4.92 µM (active). The AC50 [11] was 16.2 µM (active) and the IC50 (Protein skinhead-1) was > 100 µM (inactive).
